In patent US20160106102A1, “KNOWN AND NEW HETEROCYCLIC COMPOUNDS AS PEST CONTROL AGENTS” (BAYER CROPSCIENCE AKTIENGESELLSCHAFT, priority 2013, published 2016):
Values joined by “and” are separate entries in the source; they are usually repeats but may differ in a detail not shown here. Equal entries are not always repeated. Where two headings read alike, the source gives them in different places.

Tests used:
[1] = tested on: Myzus persicae; test: Myzus persicae - spray test; format: in vivo; conditions: application rate of 500 g/ha, after 6 days, sprayed Chinese cabbage leaf discs infested by all stages, 100% = all aphids killed
Procedure: Myzus persicae—spray test Solvent: 78 parts by weight of acetone • • 1.5 parts by weight of dimethylformamide Emulsifier: 0.5 part by weight of alkylaryl polyglycol ether To produce an appropriate active ingredient formulation, 1 part by weight of active ingredient is mixed with the specified amounts of solvent and emulsifier, and the concentrate is diluted to the desired concentration with emulsifier-containing water. Discs of Chinese cabbage leaves (Brassica pekinensis) infested by all stages of the green peach aphid (Myzus persicae) are sprayed with an active ingredient formulation of the desired concentration. After 6 days, the efficacy in % is determined. 100% means that all the aphids have been killed; 0% means that no aphids have been killed.

[2] = tested on: Myzus persicae; test: Myzus persicae - sachet test; format: in vivo; conditions: 100% = all animals killed
Summary of the method: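 Active ingredient dissolved with 2% N-methylpyrrolidone and 2% diacetone alcohol, diluted in water, then pipetted into nutrient medium. Plate sealed and paired with a plate carrying green peach aphids. Kill in % scored after the set time (100% = all dead, 0% = none dead).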

[3] = log P determination by LC-MS in the acidic range; format: physicochemical; conditions: for log P (acid): LC-MS in the acidic range
Excerpt: The LC-MS determination in the acidic range is effected at pH 2.7 using 0.1% aqueous formic acid and acetonitrile (contains 0.1% formic acid) as eluents, linear gradient from 10% acetonitrile to 95% acetonitrile. Alternatively, the determination is effected in the acidic range at pH 2.3 using 0.1% aqueous phosphoric acid and acetonitrile as eluents; linear gradient from 10% acetonitrile to 95% acetonitrile.

[4] = application rate of 6 ppm in nutrient medium
[5] = application rate of 30 ppm in nutrient medium

| log P (acid) [3] | chromatographic logP ([3]; pH 2.7, LC-MS in the acidic range, read-out: log P (acid)) | chromatographic logP ([3]; pH 2.7, values given in the synthesis examples and NMR lists, read-out: HPLC-MS: log P) | SMILES | efficacy in % [1] | efficacy (kill in %) [2, 4] [%] | efficacy (kill in %) [2, 5] [%] | HPLC-MS: log P ([3]; values given in the synthesis examples and NMR lists) | pest or weed control at 500 g/ha ([1]; Myzus persicae, foliar, 144 h, read-out: efficacy in %) [%] | pest or weed control at 6 ppm ([2]; Myzus persicae, application rate of 6 ppm in nutrient medium, read-out: efficacy (kill in %)) [%] | pest or weed control at 30 ppm ([2]; Myzus persicae, application rate of 30 ppm in nutrient medium, read-out: efficacy (kill in %)) [%] |
| --- | --- | --- | --- | --- | --- | --- | --- | --- | --- | --- |
| 0.78 | – | – | Cn1nc(NC(=O)c2cccnc2)c2cccnc21 [Compound I-1-39] | 90% | 100 | 100 | – | – | – | – |
| 1.31 | – | – | C#CCn1nc(NC(=O)c2cccnc2)cc1CC [Compound I-1-40] | 90% | 100 | 100 | – | – | – | – |
| 4.18 | – | – | Cc1cc(N(C(=O)c2ccc(Cl)cc2)C(=O)c2cccnc2)nn1C(=O)c1ccc(Cl)cc1 [Compound I-1-42] | 90% | 80 | 100 | – | – | – | – |
| 1.41 | – | – | C#CCn1nc(NC(=O)c2cccnc2)cc1C1CC1 [Compound I-1-43] | 90% | 100 | 100 | – | – | – | – |
| 2.2 | – | – | Cc1cc(NC(=O)c2cccnc2)nn1-c1ncc(C(F)(F)F)cc1Cl [Compound I-1-44] | 100% | 100 | 100 | – | – | – | – |
| 1.79 | – | – | Cc1cc(NC(=O)c2cccnc2)nn1Cc1ccccc1 [Compound I-1-46] | 100% and 90% | 100 | 100 | – | – | – | – |
| 1.4 | – | – | Cc1cc(NC(=O)c2cccnc2)nn1C(C)C [Compound I-1-49] | 80% | 100 | 100 | – | – | – | – |
| 0.13 | – | – | Cc1cc(NC(=O)c2cccnc2)nn1Cc1ccncc1 [Compound I-1-51] | 90% | 100 | 100 | – | – | – | – |
| 1.32 | – | – | O=C(Nc1ccn(-c2ccccn2)n1)c1cccnc1 [Compound I-1-52] | 90% | 100 | 100 | – | – | – | – |
| 0.69 | – | – | C#CCn1ccc(NC(=O)c2cccnc2)n1 [Compound I-1-54] | 90% | 100 | 100 | – | – | – | – |
| 1.27 | – | – | Cc1cc(NC(=O)c2cccnc2)nn1-c1cnccn1 [Compound I-1-55] | 80% | – | 100 | – | – | – | – |
| 1.9 | – | – | Cc1cc(NC(=O)c2cccnc2)nn1Cc1cccc(F)c1 [Compound I-1-60] | 100% | 100 | 100 | – | – | – | – |
| 1.35 | – | – | CCOC(=O)CN(C)C(=O)Cn1nc(NC(=O)c2cncc(F)c2)cc1C [Compound I-1-61] | 80% | – | 100 | Compound No. I-1-61: HPLC-MS: logP = 1.35; mass (m/z): 378.1 (M + H)^+; 1H NMR (CD3CN) 1.21-1.28 (m, | – | – | – |
| 2.18 | – | – | O=C(Nc1ccn(-c2ncc(C(F)(F)F)cc2Cl)n1)c1cccnc1 [Compound I-1-63] | 100% | – | 100 | – | – | – | – |
| 1.82 | – | – | Cc1cc(NC(=O)c2cccnc2)nn1Cc1ccccc1F [Compound I-1-64] | 90% | 100 | 100 | – | – | – | – |
| 0.84 | – | – | O=C(Nc1ccn(C(CF)CF)n1)c1cccnc1 [Compound I-1-65] | 90% | 100 | 100 | – | – | – | – |
| 0.76 | – | – | Cc1c(NC(=O)c2cccnc2)nn(Cc2ncccn2)c1C [Compound I-1-123] | 90% | 100 | 100 | – | – | – | – |
| 0.29 | – | – | CNC(=O)Cn1nc(NC(=O)c2cccnc2)cc1C [Compound I-1-124] | 90% | 100 | 100 | – | – | – | – |
| 1.08 | – | – | COC(=O)n1nc(NC(=O)c2cccnc2)cc1C [Compound I-1-126] | 90% | 100 | 100 | – | – | – | – |
| 0.55 | – | – | Cc1cc(NC(=O)c2ccc[n+]([O-])c2)nn1Cc1ncccn1 [Compound I-1-128] | 90% | 100 | 100 | – | – | – | – |

| log P (acid) [3] | chromatographic logP ([3]; pH 2.7, LC-MS in the acidic range, read-out: log P (acid)) | chromatographic logP ([3]; pH 2.7, values given in the synthesis examples and NMR lists, read-out: HPLC-MS: log P) | SMILES | efficacy in % [1] | efficacy (kill in %) [2, 4] [%] | efficacy (kill in %) [2, 5] [%] | HPLC-MS: log P ([3]; values given in the synthesis examples and NMR lists) | pest or weed control at 500 g/ha ([1]; Myzus persicae, foliar, 144 h, read-out: efficacy in %) [%] | pest or weed control at 6 ppm ([2]; Myzus persicae, application rate of 6 ppm in nutrient medium, read-out: efficacy (kill in %)) [%] | pest or weed control at 30 ppm ([2]; Myzus persicae, application rate of 30 ppm in nutrient medium, read-out: efficacy (kill in %)) [%] |
| --- | --- | --- | --- | --- | --- | --- | --- | --- | --- | --- |
| 1.56 | – | – | CCC(=O)n1nc(NC(=O)c2cccnc2)cc1C [Compound I-1-129] | 90% | 100 | 100 | – | – | – | – |
| 1.32 | – | – | Cc1cc(NC(=O)c2cccnc2)nn1CC(F)(F)F [Compound I-1-133] | 90% | 100 | 100 | – | – | – | – |
| – | 1.1 | 1.1 | O=C(Nc1cc(Br)n(Cc2ncccn2)n1)c1cccnc1 [Compound I-1-140, N-[5-Bromo-1-(pyrimidin-2-ylmethyl)-1H-pyrazol-3-yl]nicotinamide] | – | – | – | – | 90 | 100 | 100 |
| 0.72 | – | – | Cc1cc(NC(=O)c2cccnc2)nn1Cn1nc(C)n(C)c1=O [Compound I-1-143] | 90% | 100 | 100 | – | – | – | – |
| 1.27 | – | – | COc1nn(Cn2nc(NC(=O)c3cccnc3)cc2C)c(=O)n1C1CC1 [Compound I-1-144] | 90% | 100 | 100 | – | – | – | – |
| 1.45 | – | – | Cc1cc(NC(=O)c2cccnc2)nn1Cn1nc(C2CC2)n(C2CC2)c1=O [Compound I-1-147] | 100% | 100 | 100 | – | – | – | – |
| 0.74 | – | – | Cc1cc(NC(=O)c2cccnc2)nn1Cn1c(C)nn(C)c1=O [Compound I-1-148] | 90% | 100 | 100 | – | – | – | – |
| 0.62 | – | – | Cc1cc(NC(=O)c2cccnc2)nn1CN1CCCNC1=O [Compound I-1-149] | 90% | 100 | 100 | – | – | – | – |
| 0.62 | – | – | Cc1cc(NC(=O)c2cccnc2)nn1Cc1nn(C)c(=O)n1C [Compound I-1-153] | 100% | 100 | 100 | – | – | – | – |
| 1.54 | – | – | Cc1cc(NC(=O)c2cccnc2)nn1Cc1cn2cc(C(F)(F)F)ccc2n1 [Compound I-1-155] | 90% | 100 | 100 | – | – | – | – |
| 1.18 | – | – | Cc1cc(NC(=O)c2cccnc2)nn1Cc1cc(C(=O)O)n(-c2ncccc2Cl)n1 [Compound I-1-156] | 90% | 100 | 100 | – | – | – | – |
| 1.22 | – | – | COCCNC(=O)n1nc(NC(=O)c2cccnc2)cc1C [Compound I-1-163] | 100% | 100 | 100 | – | – | – | – |
| 1.56 | – | – | Cc1cc(NC(=O)c2cccnc2)nn1C(=O)NCC1COC(C)(C)O1 (centres unmarked) [Compound I-1-164] | 90% | 100 | 100 | – | – | – | – |
| 1.44 | – | – | COCC(C)NC(=O)n1nc(NC(=O)c2cccnc2)cc1C (centres unmarked) [Compound I-1-166] | 100% | 100 | 100 | – | – | – | – |
| 1.55 | – | – | CSCCNC(=O)n1nc(NC(=O)c2cccnc2)cc1C [Compound I-1-167] | 90% | 100 | 100 | – | – | – | – |
| 1.91 | – | – | COCCN(CCOC)C(=O)n1nc(NC(=O)c2cccnc2)cc1C [Compound I-1-169] | 100% | 100 | 100 | – | – | – | – |
| 1.88 | – | – | CCOC(CNC(=O)n1nc(NC(=O)c2cccnc2)cc1C)OCC [Compound I-1-170] | 90% | 100 | 100 | – | – | – | – |
| 1.91 | – | – | Cc1cc(NC(=O)c2cccnc2)nn1C(=O)NCCOC(F)(F)F [Compound I-1-172] | 90% | 100 | 100 | – | – | – | – |
| 0.79 | – | – | COCCn1nc(NC(=O)c2cccnc2)cc1C [Compound I-1-173] | 100% | 80 | 80 | – | – | – | – |
